Test [1] has as its system K562 (chronic myelogenous leukemia; leukemia cell line +ve for Bcr-Abl). The test is described as follows: Cytotoxicity assay, K562 tumor cells. The test is classed as cell-based. The conditions noted are these: Homo sapiens, K562, 96 h treatment. The protocol:
(§1) The effect of the compounds of the invention on tumor cells was determined by the assay described by Latham et al., Oncogene 12:827-837 (1996). Tumor cells K562 (chronic myelogenous leukemia; leukemia cell line +ve for Bcr-Abl) or DU145 (prostate cancer) were plated in 12-well dishes at a cell density of 2.5×10^4 cells well. The plated cells were treated 24 hours later with a compound of the invention dissolved in DMSO at multiple concentrations ranging from 0.01 μM to 100 μM. The plates were examined 96 hours later under an inverted microscope, Olympus CK-2 using a 10× objective, and compound activity was noted by physical observation. When necessary, the total number of viable cells was determined by trypsinizing the wells and counting the number of viable cells, as determined by trypan blue exclusion, using a hemacytometer. Where “Lower” and “Upper” value are provided in Table 5, the IC50 was determined to be within that range. When only a “Lower” value is provided and no “Upper” value is listed, the IC50 was that value, or less than or greater than that value, as set forth in the Table.
(§2) The cytotoxicity of Compound 42, (Z)-6-((2,6-dichlorobenzyl)sulfonyl)-2-(4-hydroxy-3-nitrobenzylidene)-2H-benzo[b][1,4]thiazin-3(4H)-one, was determined according the assay method of Example 7 on the prostate (androgen dependent or independent), breast and pancreatic cancer cell lines listed in Table 6A, below, and the additional cell lines listed in Table 6B, below. The human mesenchymal stem cell line HMSC.hTERT and normal human fibroblast cell line HFL was included in the test.

The subject of the next test is DU145 (prostate cancer). The test is described as follows: Cytotoxicity assay, DU145 tumor cells. The conditions noted are these: Homo sapiens, DU-145, 96 h treatment. The class given is cell-based. The protocol: as §1, §2
[2] abbreviates: lower limit of the IC50 range, or the IC50 itself (or its bound) where no Upper value is listed, read-out: K562 IC50 (μm) Lower (μm).
Where [3] appears, read: upper limit of the IC50 range, read-out: K562 IC50 (μm) Upper (μm).
Where [4] appears, read: lower limit of the IC50 range, or the IC50 itself (or its bound) where no Upper value is listed, read-out: DU145 IC50 (μm) Lower (μm).
Setting [5] is: upper limit of the IC50 range, read-out: DU145 IC50 (μm) Upper (μm).

In patent US9242945B2, “Substituted 2-benzylidene-2H-benzo[b][1,4]thiazin-3(4H)-ones, derivatives thereof, and therapeutic uses thereof” (TEMPLE UNIVERSITY—OF THE COMMONWEALTH SYSTEM OF HIGHER …, priority 2011, dated 2016) one finds IC50 data, which are given here for 21 compounds.

Read-outs that look alike come from different tables or passages of the source.

The term IC50 denotes the concentration that gives 50% inhibition. As for `CC(=O)Oc1ccc(/C=C2\Sc3ccc(Cl)cc3NC2=O)cc1[N+](=O)[O-]` [Compound 1, (Z)-4-((6-chloro-3-oxo-3,4-dihydro-2H-benzo[b][1,4]thiazin-2-ylidene)methyl)-2-nitrophenyl acetate], the half-maximal inhibitory concentration (IC50) in test [1] (setting [2]) is no less than 10000 nM; in test [1] (setting [3]), no more than 25000 nM; in the test on DU145 (prostate cancer) (setting [4]), no less than 1000 nM; with DU145 (prostate cancer) (setting [5]) it was no more than 10000 nM.
As to `COc1ccc2c(c1)S/C(=C\c1ccc(OC(C)=O)c([N+](=O)[O-])c1)C(=O)N2` [Compound 2, (Z)-4-((7-methoxy-3-oxo-3,4-dihydro-2H-benzo[b][1,4]thiazin-2-ylidene)methyl)-2-nitrophenyl acetate], the IC50 in test [1] (setting [2]) was no less than 1000 nM; in test [1] (setting [3]), no more than 10000 nM; in the test on DU145 (prostate cancer) (setting [4]), no less than 1000 nM; with DU145 (prostate cancer) (setting [5]), no more than 10000 nM.
On to `CC(=O)Oc1ccc(/C=C2\Sc3cc(Br)ccc3NC2=O)cc1[N+](=O)[O-]` [Compound 3, (Z)-4-((7-bromo-3-oxo-3,4-dihydro-2H-benzo[b][1,4]thiazin-2-ylidene)methyl)-2-nitrophenyl acetate], for which the IC50 in test [1] (setting [2]) was no less than 1000 nM; in test [1] (setting [3]), no more than 10000 nM; in the test with DU145 (prostate cancer) (setting [4]), no less than 10000 nM; in the test on DU145 (prostate cancer) (setting [5]), no more than 25000 nM.
For the compound `CC(=O)Oc1ccc(/C=C2\Sc3cc(C)ccc3NC2=O)cc1[N+](=O)[O-]` [Compound 4, (Z)-4-((7-methyl-3-oxo-3,4-dihydro-2H-benzo[b][1,4]thiazin-2-ylidene)methyl)-2-nitrophenyl acetate], the IC50 was no less than 1000 nM in test [1] (setting [2]), no more than 10000 nM in test [1] (setting [3]), no less than 1000 nM with DU145 (prostate cancer) (setting [4]) and no more than 10000 nM with DU145 (prostate cancer) (setting [5]).
For the compound `CC(=O)Oc1ccc(/C=C2\Sc3cc(C(=O)O)ccc3NC2=O)cc1[N+](=O)[O-]` [Compound 5, (Z)-2-(4-acetoxy-3-nitrobenzylidene)-3-oxo-3,4-dihydro-2H-benzo[b][1,4]thiazine-7-carboxylic acid], the values for the half-inhibitory concentration (IC50) (in test [1] (setting [2]); in test [1] (setting [3]); in the test with DU145 (prostate cancer) (setting [4])) were no less than 50000 nM, no more than 100000 nM and greater than 100000 nM, respectively.
Regarding `CC(=O)Oc1ccc(/C=C2\Sc3cc(F)ccc3NC2=O)cc1[N+](=O)[O-]` [Compound 6, (Z)-4-((7-fluoro-3-oxo-3,4-dihydro-2H-benzo[b][1,4]thiazin-2-ylidene)methyl)-2-nitrophenyl acetate], the IC50 in test [1] (setting [2]) was no less than 1000 nM; in test [1] (setting [3]), no more than 10000 nM; with DU145 (prostate cancer) (setting [5]), no more than 1000 nM.
On to `CC(=O)Oc1ccc(/C=C2\Sc3ccc(F)cc3NC2=O)cc1[N+](=O)[O-]` [Compound 7, (Z)-4-((6-fluoro-3-oxo-3,4-dihydro-2H-benzo[b][1,4]thiazin-2-ylidene)methyl)-2-nitrophenyl acetate], for which the 50% inhibitory concentration (IC50) in test [1] (setting [2]) was no less than 1000 nM; in test [1] (setting [3]) it was no more than 10000 nM; in the test on DU145 (prostate cancer) (setting [4]), no less than 1000 nM; in the test on DU145 (prostate cancer) (setting [5]), no more than 10000 nM.
`CC(=O)Oc1ccc(/C=C2\Sc3ccc(S(=O)(=O)Cc4c(Cl)cccc4Cl)cc3NC2=O)cc1[N+](=O)[O-]` [Compound 8, (Z)-4-((6-((2,6-dichlorobenzyl)sulfonyl)-3-oxo-3,4-dihydro-2H-benzo[b][1,4]thiazin-2-ylidene)methyl)-2-nitrophenyl acetate]: the IC50 in test [1] (setting [2]) was 75 nM; in the test with DU145 (prostate cancer) (setting [4]), 100 nM.
`CC(=O)Oc1ccc(/C=C2\Sc3ccc(S(=O)(=O)Cc4c(Cl)cccc4Cl)cc3NC2=O)cc1` [Compound 9, (Z)-4-((6-((2,6-dichlorobenzyl)sulfonyl)-3-oxo-3,4-dihydro-2H-benzo[b][1,4]thiazin-2-ylidene)methyl)phenyl acetate]: the IC50 (in test [1] (setting [2]); in the test with DU145 (prostate cancer) (setting [4])) was less than 1000 nM each time.
Take `O=C1Nc2cc(S(=O)(=O)Cc3c(Cl)cccc3Cl)ccc2S/C1=C\c1ccccc1` [Compound 10, (Z)-2-benzylidene-6-((2,6-dichlorobenzyl)sulfonyl)-2H-benzo[b][1,4]thiazin-3(4H)-one]: the figures for the half-inhibitory concentration (IC50) (in test [1] (setting [2]); in test [1] (setting [3]); in the test on DU145 (prostate cancer) (setting [4])) were no less than 1000 nM, no more than 10000 nM and less than 1000 nM, respectively.
As to `COc1ccc(/C=C2\Sc3ccc(S(=O)(=O)Cc4c(Cl)cccc4Cl)cc3NC2=O)cc1[N+](=O)[O-]` [Compound 11, (Z)-6-((2,6-dichlorobenzyl)sulfonyl)-2-(4-methoxy-3-nitrobenzylidene)-2H-benzo[b][1,4]thiazin-3(4H)-one], the half-maximal inhibitory concentration (IC50) is no less than 250 nM in test [1] (setting [2]), no more than 500 nM in test [1] (setting [3]), no less than 250 nM in the test with DU145 (prostate cancer) (setting [4]) and no more than 500 nM with DU145 (prostate cancer) (setting [5]).
`COc1ccc(/C=C2\Sc3ccc(S(=O)(=O)Cc4c(Cl)cccc4Cl)cc3NC2=O)cc1N` [Compound 12, (Z)-2-(3-amino-4-methoxybenzylidene)-6-((2,6-dichlorobenzyl)sulfonyl)-2H-benzo[b][1,4]thiazin-3(4H)-one]: the IC50 in test [1] (setting [2]) is no less than 100 nM; in test [1] (setting [3]), no more than 250 nM; in the test on DU145 (prostate cancer) (setting [4]), no less than 250 nM; in the test with DU145 (prostate cancer) (setting [5]), no more than 500 nM.
The matching figures for `CN1CCN(c2ccc(/C=C3\Sc4ccc(S(=O)(=O)Cc5c(Cl)cccc5Cl)cc4NC3=O)cc2)CC1` [Compound 13, (Z)-6-((2,6-dichlorobenzyl)sulfonyl)-2-(4-(4-methylpiperazin-1-yl)benzylidene)-2H-benzo[b][1,4]thiazin-3(4H)-one]: no less than 500 nM, no more than 1000 nM, no less than 1000 nM and no more than 10000 nM.
For `O=C1Nc2cc(S(=O)(=O)Cc3c(Cl)cccc3Cl)ccc2S/C1=C\c1ccc([N+](=O)[O-])cc1` [Compound 14, (Z)-6-((2,6-dichlorobenzyl)sulfonyl)-2-(4-nitrobenzylidene)-2H-benzo[b][1,4]thiazin-3(4H)-one] the same measures were no less than 1000 nM, no more than 10000 nM, no less than 1000 nM and no more than 10000 nM.
For the compound `Nc1ccc(/C=C2\Sc3ccc(S(=O)(=O)Cc4c(Cl)cccc4Cl)cc3NC2=O)cc1` [Compound 15, (Z)-2-(4-aminobenzylidene)-6-((2,6-dichlorobenzyl)sulfonyl)-2H-benzo[b][1,4]thiazin-3(4H)-one], the IC50 in test [1] (setting [2]) was found to be 30 nM; in the test with DU145 (prostate cancer) (setting [4]), 40 nM.
For the compound `O=C1Nc2cc(S(=O)(=O)Cc3c(Cl)cccc3Cl)ccc2S/C1=C\c1ccc(F)cc1` [Compound 16, (Z)-6-((2,6-dichlorobenzyl)sulfonyl)-2-(4-fluorobenzylidene)-2H-benzo[b][1,4]thiazin-3(4H)-one], the 50% inhibitory concentration (IC50) in test [1] (setting [2]) is no less than 1000 nM; in test [1] (setting [3]), no more than 10000 nM; with DU145 (prostate cancer) (setting [4]), no less than 1000 nM; in the test with DU145 (prostate cancer) (setting [5]), no more than 10000 nM.
As to `O=C1Nc2cc(S(=O)(=O)Cc3c(Cl)cccc3Cl)ccc2S/C1=C\c1ccc(Cl)cc1` [Compound 17, (Z)-2-(4-chlorobenzylidene)-6-((2,6-dichlorobenzyl)sulfonyl)-2H-benzo[b][1,4]thiazin-3(4H)-one], the IC50 was no less than 1000 nM in test [1] (setting [2]), no more than 10000 nM in test [1] (setting [3]), no less than 1000 nM in the test with DU145 (prostate cancer) (setting [4]) and no more than 10000 nM with DU145 (prostate cancer) (setting [5]).
With `O=C1Nc2cc(S(=O)(=O)Cc3c(Cl)cccc3Cl)ccc2S/C1=C\c1ccc(Br)cc1` [Compound 18, (Z)-2-(4-bromobenzylidene)-6-((2,6-dichlorobenzyl)sulfonyl)-2H-benzo[b][1,4]thiazin-3(4H)-one], the half-maximal inhibitory concentration (IC50) was no less than 1000 nM in test [1] (setting [2]), no more than 10000 nM in test [1] (setting [3]), no less than 1000 nM in the test with DU145 (prostate cancer) (setting [4]) and no more than 10000 nM in the test on DU145 (prostate cancer) (setting [5]).
Take `O=C1Nc2cc(S(=O)(=O)Cc3c(Cl)cccc3Cl)ccc2S/C1=C\c1ccc(Cl)cc1Cl` [Compound 22, (Z)-6-((2,6-dichlorobenzyl)sulfonyl)-2-(2,4-dichlorobenzylidene)-2H-benzo[b][1,4]thiazin-3(4H)-one]: the IC50 in test [1] (setting [2]) was no less than 1000 nM; in test [1] (setting [3]), no more than 10000 nM; in the test on DU145 (prostate cancer) (setting [4]) it was no less than 1000 nM; with DU145 (prostate cancer) (setting [5]) it was no more than 10000 nM.
Regarding `CC(=O)n1cc(/C=C2\Sc3ccc(S(=O)(=O)Cc4c(Cl)cccc4Cl)cc3NC2=O)c2ccccc21` [Compound 26, (Z)-2-((1-acetyl-1H-indol-3-yl)methylene)-6-((2,6-dichlorobenzyl)sulfonyl)-2H-benzo[b][1,4]thiazin-3(4H)-one], the IC50 in test [1] (setting [2]) is no less than 500 nM; in test [1] (setting [3]), no more than 1000 nM; with DU145 (prostate cancer) (setting [4]) it was no less than 500 nM; in the test on DU145 (prostate cancer) (setting [5]), no more than 1000 nM.
`O=C1Nc2cc(S(=O)(=O)Cc3c(Cl)cccc3Cl)ccc2S/C1=C\c1ccc(Cl)c([N+](=O)[O-])c1` [Compound 29, (Z)-2-(4-chloro-3-nitrobenzylidene)-6-((2,6-dichlorobenzyl)sulfonyl)-2H-benzo[b][1,4]thiazin-3(4H)-one]: the IC50 was no less than 1000 nM in test [1] (setting [2]), no more than 10000 nM in test [1] (setting [3]), no less than 500 nM with DU145 (prostate cancer) (setting [4]) and no more than 1000 nM in the test on DU145 (prostate cancer) (setting [5]).
